From patent US20220298163A1, “BTK INHIBITORS WITH IMPROVED DUAL SELECTIVITY” (BEIGENE, LTD., priority 2017, published 2022) come the findings set out here.

The target of the first assay is T1, Btk kinase (aa2-659, Carna Biosciences) (Homo sapiens, UniProt Q06187).
T1 construct: purchased Carna Biosciences
T1 sequence (Q06187 2-659): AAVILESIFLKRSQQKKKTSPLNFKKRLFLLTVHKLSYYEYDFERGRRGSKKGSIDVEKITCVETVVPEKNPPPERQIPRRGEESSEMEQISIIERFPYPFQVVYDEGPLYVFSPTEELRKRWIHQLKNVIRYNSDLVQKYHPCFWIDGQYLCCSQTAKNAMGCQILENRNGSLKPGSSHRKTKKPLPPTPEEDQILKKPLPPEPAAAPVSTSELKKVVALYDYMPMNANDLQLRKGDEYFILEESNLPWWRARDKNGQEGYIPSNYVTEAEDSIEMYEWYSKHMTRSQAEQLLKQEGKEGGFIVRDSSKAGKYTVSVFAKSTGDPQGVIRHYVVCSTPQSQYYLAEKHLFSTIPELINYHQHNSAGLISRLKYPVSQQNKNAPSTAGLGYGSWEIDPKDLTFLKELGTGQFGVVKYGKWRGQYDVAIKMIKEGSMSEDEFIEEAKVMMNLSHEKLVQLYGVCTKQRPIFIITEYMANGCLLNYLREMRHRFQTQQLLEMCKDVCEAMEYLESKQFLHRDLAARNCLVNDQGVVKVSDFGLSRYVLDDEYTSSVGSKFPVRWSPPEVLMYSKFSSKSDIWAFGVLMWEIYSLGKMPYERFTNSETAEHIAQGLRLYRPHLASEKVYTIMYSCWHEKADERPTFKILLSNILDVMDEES
Nature of the assay: Btk kinase enzymatic assay (TR-FRET).
Details: not given
The assay is classed as biochemical. On the technique in general: Time-resolved FRET reads energy transfer from a long-lived donor to a nearby acceptor.
In the case of `C=CC(=O)N1CCC(C2CCNc3c(C(N)=O)c(-c4cc(Cl)c(OC)c(Cl)c4)nn32)CC1` (stereo not shown) [Example A15, 7-(1-acryloylpiperidin-4-yl)-2-(3,5-dichloro-4-methoxyphenyl)-4,5,6,7-tetrahydropyrazolo[1,5-a]pyrimidine-3-carboxamide], the “affinity / inhibitory activity for Btk (in words)” value was “poor affinity for Btk”.

The assay is the same for the next values; noted with them: TR-FRET, 30 μM ATP, compound incubated with kinase 60 minutes.
With `C=CC(=O)N1CCC(C2CCNc3c(C(N)=O)c(-c4cc(OC)cc(OC)c4)nn32)CC1` (stereo not shown) [Example A9, 7-(1-acryloylpiperidin-4-yl)-2-(3,5-dimethoxyphenyl)-4,5,6,7-tetrahydropyrazolo[1,5-a]pyrimidine-3-carboxamide], the IC50 was determined as 41 nM.
Same read-out and setting: the figure for `C=CC(=O)N1CCC(C2CCNc3c(C(N)=O)c(-c4cc(OC)c(-c5ccccc5)c(OC)c4)nn32)CC1` (stereo not shown) [Example A10, 7-(1-acryloylpiperidin-4-yl)-2-(2,6-dimethoxy-[1,1′-biphenyl]-4-yl)-4,5,6,7-tetrahydropyrazolo[1,5-a]pyrimidine-3-carboxamide] is 51 nM.
Still for that read-out and setting: the result for `C=CC(=O)N1CCC(C2CCNc3c(C(N)=O)c(-c4cc(OCC)c(C)c(OCC)c4)nn32)CC1` (stereo not shown) [Example A13, 7-(1-acryloylpiperidin-4-yl)-2-(3,5-diethoxy-4-methylphenyl)-4,5,6,7-tetrahydropyrazolo[1,5-a]pyrimidine-3-carboxamide] reads over 100 nM.
Same read-out and setting: the figure for `C=CC(=O)N1CCC(C2CCNc3c(C(N)=O)c(-c4cc(Cl)c(OC)c(Cl)c4)nn32)CC1` (stereo not shown) [Example A15, 7-(1-acryloylpiperidin-4-yl)-2-(3,5-dichloro-4-methoxyphenyl)-4,5,6,7-tetrahydropyrazolo[1,5-a]pyrimidine-3-carboxamide] is 20 nM.
For the molecule `C=CC(=O)N1CCC(C2CCNc3c(C(N)=O)c(-c4cc(Cl)c(C5CC5)c(Cl)c4)nn32)CC1` (stereo not shown) [Example A24, 7-(1-acryloylpiperidin-4-yl)-2-(3,5-dichloro-4-cyclopropylphenyl)-4,5,6,7-tetrahydropyrazolo[1,5-a]pyrimidine-3-carboxamide], half-maximal inhibition (IC50) required 28 nM.
On the same count and under the same terms, the result for `C=CC(=O)N1CCC(C2CCNc3c(C(N)=O)c(-c4cc(Cl)c(Br)c(OC(F)(F)F)c4)nn32)CC1` (stereo not shown) [Example A26, 7-(1-acryloylpiperidin-4-yl)-2-(4-bromo-3-chloro-5-(trifluoromethoxy)phenyl)-4,5,6,7-tetrahydropyrazolo[1,5-a]pyrimidine-3-carboxamide] reads 41 nM; that for `C=CC(=O)N1CCC(C2CCNc3c(C(N)=O)c(-c4cc(OC)c(-c5c(C)noc5C)c(OC)c4)nn32)CC1` (stereo not shown) [Example A31, 7-(1-acryloylpiperidin-4-yl)-2-(4-(3,5-dimethylisoxazol-4-yl)-3-dimethoxyphenyl)-4,5,6,7-tetrahydropyrazolo[1,5-a]pyrimidine-3-carboxamide], over 100 nM; that for `C=CC(=O)N1CCC(C2CCNc3c(C(N)=O)c(-c4cc(OC)c(C5CCOCC5)c(OC)c4)nn32)CC1` (stereo not shown) [Example A32, 7-(1-acryloylpiperidin-4-yl)-2-(3,5-dimethoxy-4-(tetrahydro-2H-pyran-4-yl)phenyl)-4,5,6,7-tetrahydropyrazolo[1,5-a]pyrimidine-3-carboxamide], 52 nM.
The molecule `C=CC(=O)N1CCC(C2CCNc3c(C(N)=O)c(-c4cc(Cl)c(C5CC5)c(OCC)c4)nn32)CC1` (stereo not shown) [Example A48, 7-(1-acryloylpiperidin-4-yl)-2-(3-chloro-4-cyclopropyl-5-ethoxyphenyl)-4,5,6,7-tetrahydropyrazolo[1,5-a]pyrimidine-3-carboxamide] yielded an IC50 of 16 nM.
The same measure, in the same setting: the result for `C=CC(=O)N1CCC(C2CCNc3c(C(N)=O)c(-c4cc(Cl)c(C)c(OCC)c4)nn32)CC1` (stereo not shown) [Example A49, 7-(1-acryloylpiperidin-4-yl)-2-(3-chloro-5-ethoxy-4-methylphenyl)-4,5,6,7-tetrahydropyrazolo[1,5-a]pyrimidine-3-carboxamide] reads 18 nM; that for `C=CC(=O)N1CC(C2CCNc3c(C(N)=O)c(-c4cc(Cl)c(C)c(Cl)c4)nn32)C1` (stereo not shown) [Example B1, 7-(1-acryloylazetidin-3-yl)-2-(3,5-dichloro-4-methylphenyl)-4,5,6,7-tetrahydropyrazolo[1,5-a]pyrimidine-3-carboxamide], 13 nM.
In turn, `C=CC(=O)N1CC2CNc3c(C(N)=O)c(-c4cc(OC)c(OC)c(OC)c4)nn3C2C1` (stereo not shown) [Example C2, 7-acryloyl-2-(3,4,5-trimethoxyphenyl)-5,5a,6,7,8,8a-hexahydro-4H-pyrazolo[1,5-a]pyrrolo[3,4-e]pyrimidine-3-carboxamide] yielded an IC50 of 34 nM.
Still for that read-out and setting: the figure for `C=CC(=O)N1CCC2C(CNc3c(C(N)=O)c(-c4cc(OC)c(C)c(OC)c4)nn32)C1` (stereo not shown) [Example D1, 7-acryloyl-2-(3,5-dimethoxy-4-methylphenyl)-4,5,5a,6,7,8,9,9a-octahydropyrazolo[1,5-a]pyrido[3,4-e]pyrimidine-3-carboxamide] is 10 nM.
Same read-out and setting: the figure for `C=CC(=O)NCC1CCNc2c(C(N)=O)c(-c3cc(OC)c(C)c(OC)c3)nn21` (stereo not shown) [Example E1, 7-(acrylamidomethyl)-2-(3,5-dimethoxy-4-methylphenyl)-4,5,6,7-tetrahydropyrazolo[1,5-a]pyrimidine-3-carboxamide] is 33 nM; for `C=CC(=O)N1CCC2(CC1)CC(C1CCNc3c(C(N)=O)c(-c4cc(OC)c(C)c(OC)c4)nn31)C2` (stereo not shown) [Example F1, 7-(7-acryloyl-7-azaspiro[3.5]nonan-2-yl)-2-(3,5-dimethoxy-4-methylphenyl)-4,5,6,7-tetrahydropyrazolo[1,5-a]pyrimidine-3-carboxamide] it is over 100 nM.
The same measure, in the same setting: the figure for `C=CC(=O)N1CC2CCC(C1)C2C1CCNc2c(C(N)=O)c(-c3cc(OC)c(C)c(OC)c3)nn21` (stereo not shown) [Example G1, 7-(3-acryloyl-3-azabicyclo[3.2.1]octan-8-yl)-2-(3,5-dimethoxy-4-methylphenyl)-4,5,6,7-tetrahydropyrazolo[1,5-a]pyrimidine-3-carboxamide] is 12 nM.
For the molecule `C=CC(=O)N1CC2(CC(C3CCNc4c(C(N)=O)c(-c5cc(OC)c(C)c(OC)c5)nn43)C2)C1` (stereo not shown) [Example H1, 7-(2-acryloyl-2-azaspiro[3.3]heptan-6-yl)-2-(3,5-dimethoxy-4-methylphenyl)-4,5,6,7-tetrahydropyrazolo[1,5-a]pyrimidine-3-carboxamide], the IC50 worked out at 35 nM. This IC50 lies about 2.9-fold higher than the previous one.
Consider `C=CC(=O)N1CCC(C2CCNc3c(C(N)=O)c(-c4ccc(Cl)cc4)nn32)CC1` (stereo not shown) [reference compound], for which 22 nM corresponded to half-maximal inhibition (IC50).

The target of another assay is T2, Tec (Homo sapiens, UniProt P42680).
T2 sequence (P42680 1-631): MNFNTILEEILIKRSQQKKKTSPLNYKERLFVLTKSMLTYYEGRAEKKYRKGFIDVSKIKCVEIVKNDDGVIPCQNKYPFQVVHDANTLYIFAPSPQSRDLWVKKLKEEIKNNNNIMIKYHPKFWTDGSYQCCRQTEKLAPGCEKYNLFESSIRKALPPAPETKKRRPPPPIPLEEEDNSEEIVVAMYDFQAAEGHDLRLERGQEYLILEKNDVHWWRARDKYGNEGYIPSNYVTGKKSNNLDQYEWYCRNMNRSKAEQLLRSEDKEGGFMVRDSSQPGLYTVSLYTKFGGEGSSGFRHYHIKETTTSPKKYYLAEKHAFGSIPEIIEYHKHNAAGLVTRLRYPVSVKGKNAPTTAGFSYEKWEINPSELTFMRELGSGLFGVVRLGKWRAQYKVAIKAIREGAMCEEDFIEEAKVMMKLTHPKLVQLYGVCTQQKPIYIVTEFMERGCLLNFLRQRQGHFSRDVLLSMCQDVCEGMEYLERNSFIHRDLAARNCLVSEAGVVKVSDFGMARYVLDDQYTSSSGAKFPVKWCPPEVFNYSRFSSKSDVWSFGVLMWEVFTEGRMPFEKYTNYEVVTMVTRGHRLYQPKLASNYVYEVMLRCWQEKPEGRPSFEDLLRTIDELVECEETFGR
Nature of the assay: Biochemical kinase selectivity: IC50 determination of Tec. Conditions: TR-FRET, 280 μM ATP.
In turn, `C=CC(=O)N1CCC(C2CCNc3c(C(N)=O)c(-c4ccccc4)nn32)CC1` (stereo not shown) [Example 144, reference compound] yielded an IC50 of 491 nM.
The same measure, in the same setting: the result for `C=CC(=O)N1CCC(C2CCNc3c(C(N)=O)c(-c4cc(OC)c(OC)c(OC)c4)nn32)CC1` (stereo not shown) [Example A14, 7-(1-acryloylpiperidin-4-yl)-2-(3,4,5-trimethoxyphenyl)-4,5,6,7-tetrahydropyrazolo[1,5-a]pyrimidine-3-carboxamide] reads over 1000 nM; that for `C=CC(=O)N1CCC(C2CCNc3c(C(N)=O)c(-c4cc(Cl)c(OC)c(Cl)c4)nn32)CC1` (stereo not shown) [Example A15, 7-(1-acryloylpiperidin-4-yl)-2-(3,5-dichloro-4-methoxyphenyl)-4,5,6,7-tetrahydropyrazolo[1,5-a]pyrimidine-3-carboxamide], 1000 nM; that for `C=CC(=O)N1CCC(C2CCNc3c(C(N)=O)c(-c4cc(OC)c(C=C)c(OC)c4)nn32)CC1` (stereo not shown) [Example A51, 7-(1-acryloylpiperidin-4-yl)-2-(3,5-dimethoxy-4-vinylphenyl)-4,5,6,7-tetrahydropyrazolo[1,5-a]pyrimidine-3-carboxamide], 136 nM.

The same assay, now with this note: ratio of IC50 values.
Regarding `C=CC(=O)N1CCC(C2CCNc3c(C(N)=O)c(-c4ccccc4)nn32)CC1` (stereo not shown) [Example 144, reference compound], the “Fold of Tec/Btk” value turned out to be 3.5 fold.
Still for that read-out and setting: the result for `C=CC(=O)N1CCC(C2CCNc3c(C(N)=O)c(-c4cc(Cl)c(OC)c(Cl)c4)nn32)CC1` (stereo not shown) [Example A15, 7-(1-acryloylpiperidin-4-yl)-2-(3,5-dichloro-4-methoxyphenyl)-4,5,6,7-tetrahydropyrazolo[1,5-a]pyrimidine-3-carboxamide] reads 50 fold.

As usually defined, the IC50 is the midpoint of a concentration-inhibition curve. Higher therefore signals weaker potency.
